The results in this text go back to patent US6664426B1, “Ether and ester derivatives of the perborate icosahedron” (The Regents of the University of California, priority 2000, dated 2003).

A short description of this data set: Qualitative solubility in water. Type of data set: physicochemical. Particulars: qualitative statement.
Turning to closo-1,12-(CH2OH)2-1,12-C2B10H10, the solubility in water result is on record as “slightly water-soluble”. On to Cs[closo-1-CB11H12]^−, for which the solubility in water entry is “sparingly water-soluble”. As for Cs2[closo-B12(OH)12] [dicesium salt], the solubility in water result is reported as “freely soluble in water”. With Cs2[closo-B12H12]^2−, the solubility in water entry is reported as “sparingly water-soluble”. In the case of closo-1,12-C2B10H12, the solubility in water entry is on record as “not water-soluble”.
